Results published in ChEMBL document CHEMBL5143572, “Synthesis and evaluation of new potential anti-pseudo-allergic agents” (Bioorg Med Chem Lett, 2022).
The source made the active and inactive calls. The calls are words filed in the database; no cut-off is given here.

Experiments:
[1] = system: LAD2; experiment: Antiallergic activity in human LAD2 cells assessed as inhibition of C48/80-induced beta-hexosaminidase release; format: functional, cell-based; conditions: dose 0.1-100 µM
[2] = system: LAD2; experiment: Cytotoxicity against human LAD2 cells at 0.1 to 100 uM measured after 24 hrs; format: toxicity, cell-based; conditions: lad2, 24 h, dose 0.1-100 µM
[3] = system: LAD2; experiment: Antiallergic activity in human LAD2 cells assessed as inhibition of C48/80-induced histamine release; format: functional, cell-based; conditions: dose 0.1-100 µM, DDE = dose-dependent effect
[4] = target: T1, Mas-related G-protein coupled receptor member X2 (Homo sapiens) (UniProt Q96LB1); experiment: Antagonist activity at MRGPRX2 (unknown origin) expressed in HEK293 cells assessed as inhibition of C48/80-induced Ca2+- mobilization; format: functional, cell-based; conditions: filed as antagonist, dose 0.1-100 µM, DDE = dose-dependent effect
T1 sequence (whole entry): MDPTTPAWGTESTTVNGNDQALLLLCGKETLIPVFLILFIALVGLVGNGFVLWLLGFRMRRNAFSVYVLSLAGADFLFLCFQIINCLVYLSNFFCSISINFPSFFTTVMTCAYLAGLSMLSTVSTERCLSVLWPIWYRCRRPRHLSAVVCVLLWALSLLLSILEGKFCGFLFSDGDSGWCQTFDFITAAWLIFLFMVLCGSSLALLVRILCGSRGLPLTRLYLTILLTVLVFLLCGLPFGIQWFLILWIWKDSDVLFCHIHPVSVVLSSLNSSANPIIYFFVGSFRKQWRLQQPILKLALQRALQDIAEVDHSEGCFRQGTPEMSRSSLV

| inhibition [4] | SMILES | inhibition [1] | Activity [2] | inhibition ([1]; DDE = dose-dependent effect) | inhibition [3] |
| --- | --- | --- | --- | --- | --- |
| – | O=C(Nc1ccc(Sc2ccc3c(=O)[nH]cnc3c2)cc1)Nc1ccc(Cl)c(C(F)(F)F)c1 | Active | – | – | – |
| – | FC(F)(F)c1ccc(/C=C/c2nc(COc3ccc(CCCCn4ccnn4)cc3)co2)cc1 | Active | – | – | – |
| Dde | O=C(Nc1ccc(Cl)c(C(F)(F)F)c1)Nc1nc(COc2ccc(CCCCn3ccnn3)cc2)co1 | – | Non-Toxic | Dde | Dde |
| Dde | O=C(Nc1ccc(C(F)(F)F)cc1)Nc1nc(COc2ccc(CCCCn3ccnn3)cc2)co1 | – | Non-Toxic | Dde | Dde |
